Results on three molecules are retold here after patent US7423051B2, “2,6-diaminopyridine derivatives” (Hoffmann-La Roche Inc., priority 2004, dated 2008).

The target of one test is T1, human cyclin D1-CDK4 (Homo sapiens, UniProt P11802).
T1 construct: GST (N); made in house; host or cells: High Five insect cells (baculovirus)
Kind of test: CDK4 HTRF kinase assay (Ki measurement). Format: biochemical. Particulars: Rb substrate, ATP at 3x Km, Ki=IC50/(1+S/Km). An excerpt: (§1) Using recombinant human cyclin B-CDK1, human cyclin E-CDK2 or human cyclin D1-CDK4 complexes. GST-cyclinE (GST-cycE), CDK2, GST-cyclinB (GST-cycB), CDK1, GST-CDK4 and cyclin D1 (cycD1) cDNA clones in baculovirus vectors were provided by Dr. W. Harper at the Baylor College of Medicine, Houston, Tex. Proteins were co-expressed in High Five™ insect cells and the complex was purified on glutathione Sepharose resin (Pharmacia, Piscataway, N.J.) as previously described (Harper, J. W. et al. Cell 1993, 75, 805-816). A 6×-Histidine tagged truncated form of retinoblastoma (Rb) protein (amino acid 386-928) was used as the substrate for the cycD1-CDK4, cycB-CDK1 and the cycE-CDK2 assays (the expression plasmid was provided by Dr. Veronica Sullivan, Department of Molecular Virology, Roche Research Centre, Welwyn Garden City, United Kingdom). The Rb protein is a natural substrate for phosphorylation by CDK4, CDK2 and CDK1 (see Herwig and Strauss Eur. J. Biochem. Vol. 246 (1997) pp.581-601 and the references cited therein).
(§2) The expression of the 62Kd protein was under the control of an IPTG inducible promoter in an M15 E. coli strain. […] Purified Rb fusion protein stocks were quantitated for protein concentration, aliquoted, and stored at −70° C.
(§3) Using the protein constructs described above, CDK1, CDK2, and CDK4 HTRF assays were set up. These were done in 96-well format and read in 384-well plate format. […]
In the CDK4 assay, test compounds were diluted to 3× their final concentrations in 25 mM Hepes, pH 7.0, 6.25 mM MgCl2, 1.5 mM DTT, 135 μM ATP. […] The plates were read using either ViewLux or Victor V readers (PerkinElmer Life Sciences) using an excitation wavelength of 340 nm and dual emission wavelengths of 615 nm and 665 nm. […] For ATP competitive inhibitors, the Ki values were calculated according to the following equation: Ki=IC50/(1+S/Km) where S refers to the substrate concentration (ATP) and Km refers to the Michaelis-Menten constant for the ATP.
Background: Time-resolved FRET reads energy transfer from a long-lived donor to a nearby acceptor.

A further test addresses T2, human cyclin E-CDK2 (Homo sapiens, UniProt P24941).
T2 construct: made in house; host or cells: High Five insect cells (baculovirus)
Put plainly: CDK2 HTRF kinase assay (Ki measurement). It is filed as biochemical. Conditions: Rb substrate, ATP at 3x Km, Ki=IC50/(1+S/Km).
Excerpt: as §1, §2, §3
In the CDK4 assay, test compounds were diluted to 3× their final concentrations in 25 mM Hepes, pH 7.0, 6.25 mM MgCl2, 1.5 mM DTT, 135 μM ATP. […] The plates were read using either ViewLux or Victor V readers (PerkinElmer Life Sciences) using an excitation wavelength of 340 nm and dual emission wavelengths of 615 nm and 665 nm. […] For ATP competitive inhibitors, the Ki values were calculated according to the following equation: Ki=IC50/(1+S/Km) where S refers to the substrate concentration (ATP) and Km refers to the Michaelis-Menten constant for the ATP. […]

The test system of a further test is HCT116 cell line. Put plainly: Tetrazolium dye proliferation assay (MTT assay). Particulars: HCT-116; human colon tumor cell line HCT116, MTT assay. It is filed as cell-based. On the procedure:
Cell Based Assays (Tetrazolium dye proliferation assay)(“MTT Assay”)
Proliferation was evaluated by the tetrazolium dye assay according to the procedure of Denizot and Lang (Denizot, F. and Lang, R. J Immunol Methods 1986, 89, 271-277). The cell line used was HCT116, a colorectal carcinoma cell line obtained from the American Type Cell Culture Collection (ATCC; Rockville, Md.). The cells were grown in McCoy's 5A medium supplemented with 10% FCS and L-glutamine.
Cells were plated at the appropriate seeding density to give logarithmic growth over the course of the assay in a 96-well tissue culture plate. Plates were incubated overnight at 37° C. in a humidified incubator with 5% CO2. The next day, test compounds were serially diluted to four times the final concentration in the appropriate medium containing 1.2% DMSO. One-fourth final volume of each dilution was added in duplicate to the plates containing cells. The same volume of 1.2% DMSO in medium was added to a row of “control wells” such that the final concentration of DMSO in each well was 0.3%. Wells to which no cells were added served as the “blank.” Wells to which no inhibitor was added served as “no inhibitor control.” The plates were returned to the incubator, and at set time points (determined by their growth curves) plates were analyzed as described below.
3-(4,5-dimethylthiazole-2-yl)-2,5-diphenyl-2H-tetrazolium bromide (thiazolyl blue; MTT; Sigma) was added to each well to yield a final concentration of 1 mg/ml. Plates were returned to the incubator for 2.5-3 hours at 37° C. […] Absorbance readings were taken in a microtiter plate reader (Dynatech and Molecular Devices plate readers were used interchangeably) at a wavelength of 570 nm with a 650 nm reference. Percent inhibition (% INH) is calculated by subtracting the absorbance of the blank well from all wells, then subtracting the ratio of the average absorbance of each test duplicate (SAVE) by the average of the controls (CAVE) from 1.00. […]
A general note: Tetrazolium assays rely on reduction of a dye to a coloured formazan, in cell work by metabolically active cells.

In a further test the target is T3, human cyclin B-CDK1 (Homo sapiens, UniProt P06493).
T3 construct: made in house; host or cells: High Five insect cells (baculovirus)
T3 sequence (P06493 whole entry): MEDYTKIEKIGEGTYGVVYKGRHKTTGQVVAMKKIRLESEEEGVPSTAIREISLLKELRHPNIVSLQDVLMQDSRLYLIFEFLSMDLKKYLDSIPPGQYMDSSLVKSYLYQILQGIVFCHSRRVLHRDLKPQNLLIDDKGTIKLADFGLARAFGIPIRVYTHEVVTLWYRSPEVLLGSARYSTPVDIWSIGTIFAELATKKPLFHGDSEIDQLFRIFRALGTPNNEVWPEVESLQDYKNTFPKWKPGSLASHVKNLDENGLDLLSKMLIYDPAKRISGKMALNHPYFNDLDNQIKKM
T3 sequence (P14635 whole entry partner): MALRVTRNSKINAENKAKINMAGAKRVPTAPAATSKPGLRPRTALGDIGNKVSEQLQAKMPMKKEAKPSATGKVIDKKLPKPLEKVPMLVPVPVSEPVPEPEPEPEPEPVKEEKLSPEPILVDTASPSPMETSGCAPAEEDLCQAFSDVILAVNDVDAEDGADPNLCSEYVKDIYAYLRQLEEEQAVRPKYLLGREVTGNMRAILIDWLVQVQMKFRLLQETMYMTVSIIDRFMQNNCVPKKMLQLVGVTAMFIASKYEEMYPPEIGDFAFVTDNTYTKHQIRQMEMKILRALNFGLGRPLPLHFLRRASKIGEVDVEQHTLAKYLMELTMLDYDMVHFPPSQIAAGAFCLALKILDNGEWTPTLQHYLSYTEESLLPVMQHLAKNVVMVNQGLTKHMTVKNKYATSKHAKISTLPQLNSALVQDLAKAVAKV
Put plainly: CDK1 HTRF kinase assay (Ki measurement). Format: biochemical. Conditions: Rb substrate, ATP at 3x Km, Ki=IC50/(1+S/Km).
Excerpt: Using recombinant human cyclin B-CDK1, human cyclin E-CDK2 or human cyclin D1-CDK4 complexes. GST-cyclinE (GST-cycE), CDK2, GST-cyclinB (GST-cycB), CDK1, GST-CDK4 and cyclin D1 (cycD1) cDNA clones in baculovirus vectors were provided by Dr. W. Harper at the Baylor College of Medicine, Houston, Tex. Proteins were co-expressed in High Five™ insect cells and the complex was purified on glutathione Sepharose resin (Pharmacia, Piscataway, N.J.) as previously described (Harper, J. W. et al. Cell 1993, 75, 805-816). […]
as §2, §3
In the CDK4 assay, test compounds were diluted to 3× their final concentrations in 25 mM Hepes, pH 7.0, 6.25 mM MgCl2, 1.5 mM DTT, 135 μM ATP. […] The plates were read using either ViewLux or Victor V readers (PerkinElmer Life Sciences) using an excitation wavelength of 340 nm and dual emission wavelengths of 615 nm and 665 nm. […]

The structures appear in SMILES notation. Like-named read-outs stand apart in the source and are kept apart here.

T1 sequence (P11802 whole entry): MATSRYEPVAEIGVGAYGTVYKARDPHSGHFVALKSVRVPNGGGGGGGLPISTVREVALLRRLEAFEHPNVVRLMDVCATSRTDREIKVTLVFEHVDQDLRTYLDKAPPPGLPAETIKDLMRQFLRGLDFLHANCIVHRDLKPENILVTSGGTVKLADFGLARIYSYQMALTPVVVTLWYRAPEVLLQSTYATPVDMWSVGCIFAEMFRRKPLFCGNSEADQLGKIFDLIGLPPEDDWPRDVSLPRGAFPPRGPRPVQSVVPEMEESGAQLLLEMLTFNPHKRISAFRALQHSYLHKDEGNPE
T1 sequence (P24385 whole entry partner): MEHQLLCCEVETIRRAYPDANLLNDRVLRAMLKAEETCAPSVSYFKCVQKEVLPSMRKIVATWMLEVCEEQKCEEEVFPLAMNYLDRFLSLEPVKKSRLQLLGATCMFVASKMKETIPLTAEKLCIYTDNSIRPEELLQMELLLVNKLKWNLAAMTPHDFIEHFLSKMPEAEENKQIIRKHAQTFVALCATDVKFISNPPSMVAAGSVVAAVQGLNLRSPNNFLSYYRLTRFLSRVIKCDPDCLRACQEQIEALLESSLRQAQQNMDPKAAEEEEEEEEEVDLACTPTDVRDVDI

`COc1ccc(F)cc1C(=O)c1ccc(NC2CCN(S(C)(=O)=O)CC2)nc1N` [Example 23, [2-Amino-6-(1-methanesulfonyl-piperidin-4-ylamino)-pyridin-3-yl]-(5-fluoro-2-methoxy-phenyl)-methanone]: the Ki – broadly, the dissociation constant of the complex between target and ligand, obtained from inhibition or displacement – on human cyclin D1-CDK4 was 40 nM; at human cyclin E-CDK2 (read-out: Ki for cdk2), 98 nM. Moreover, 9000 nM corresponded to half-maximal inhibition with HCT116 cell line (IC50).
Turning to `COc1ccc(F)c(F)c1C(=O)c1ccc(NC2CCN(S(C)(=O)=O)CC2)nc1N` [Example 40, [2-Amino-6-(1-methanesulfonyl-piperidin-4-ylamino)-pyridin-3-yl]-(2,3-difluoro-6-methoxy-phenyl)-methanone], the Ki at human cyclin D1-CDK4 came out at 17 nM; on human cyclin B-CDK1, 60 nM; on human cyclin E-CDK2 (read-out: Ki for cdk2 (unit inferred)), 54 nM. In addition, in the test with HCT116 cell line, half-maximal inhibition (IC50) required 2600 nM.
Consider `COc1cc(Cl)c(F)cc1C(=O)c1ccc(NC2CCN(S(C)(=O)=O)CC2)nc1N` [Example 49, [2-Amino-6-(1-methanesulfonyl-piperidin-4-ylamino)-pyridin-3-yl]-(4-chloro-5-fluoro-2-methoxy-phenyl)-methanone], for which the Ki was 8 nM at human cyclin D1-CDK4, 154 nM at human cyclin B-CDK1 and 39 nM on human cyclin E-CDK2 (read-out: Ki for cdk2). For the same molecule, the IC50 (commonly the concentration at which inhibition is half-maximal) with HCT116 cell line came to 3000 nM.
